Data published in patent publication US9181241B2, “Antagonists of chemokine receptors” (ChemoCentryx, Inc., priority 2012, dated 2015).

molecular target: T1, CCR1 (Homo sapiens, UniProt P32246); test: Chemotaxis assay (CTX): inhibition of CCR1 mediated migration of THP-1 or monocyte cells; format: cell-based; details: class symbols; activity for either the chemotaxis assay or binding assay
T1 construct: host or cells: THP-1 cells or isolated human CD14+ monocytes
T1 sequence (P32246 1-355): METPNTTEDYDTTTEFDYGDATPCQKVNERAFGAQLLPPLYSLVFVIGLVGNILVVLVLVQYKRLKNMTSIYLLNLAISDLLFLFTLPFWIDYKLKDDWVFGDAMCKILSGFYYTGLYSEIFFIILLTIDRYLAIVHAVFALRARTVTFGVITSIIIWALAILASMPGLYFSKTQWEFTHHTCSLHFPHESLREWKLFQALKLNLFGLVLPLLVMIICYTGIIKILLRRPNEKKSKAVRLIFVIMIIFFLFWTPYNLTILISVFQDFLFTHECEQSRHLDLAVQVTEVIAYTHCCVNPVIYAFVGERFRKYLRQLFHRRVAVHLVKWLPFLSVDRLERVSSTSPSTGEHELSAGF
Experimental: THP-1 cells were obtained from ATCC (TIB-202) and cultured as a suspension in RPMI-1640 medium supplemented with 2 mM L-glutamine, 1.5 g/L sodium bicarbonate, 4.5 g/L glucose, 10 mM HEPES, 1 mM sodium pyruvate, 0.05% 2-mercaptoethanol and 10% FBS. Cells were grown under 5% CO2/95% air, 100% humidity at 37° C. and subcultured twice weekly at 1:5 (cells were cultured at a density range of 2×10^5 to 2×10^6 cells/mL) and harvested at 1×10^6 cells/mL. THP-1 cells express CCR1 and can be used in CCR1 binding and functional assays.
Monocytes were isolated from human buffy coats using the Miltenyi bead isolation system (Miltenyi, Auburn, Calif.). Briefly, following a Ficoll gradient separation to isolate peripheral blood mononuclear cells, cells were washed with PBS and the red blood cells lysed using standard procedures. Remaining cells were labeled with anti-CD14 antibodies coupled to magnetic beads (Miltenyi Biotech, Auburn, Calif.). Labeled cells were passed through AutoMACS (Miltenyi, Auburn, Calif.) and positive fraction collected. Monocytes express CCR1 and can be used in CCR1 binding and functional assays.
Chemotaxis assays were performed using 5 μm pore polycarbonate, polyvinylpyrrolidone-coated filters in 96-well chemotaxis chambers (Neuroprobe; Gaithersburg, Md.) using chemotaxis buffer (Hank's balanced salt solution (HBSS) and 1% FBS). CCR1 chemokine ligands (i.e., MIP-1α, CCL15/Leukotactin; R&D Systems; Minneapolis, Minn.) are use to evaluate compound mediated inhibition of CCR1 mediated migration. Other chemokines (i.e., SDF-1α; R&D Systems; Minneapolis, Minn.) are used as specificity controls. The lower chamber was loaded with 29 μl of chemokine (i.e., 0.1 nM CCL15/Leukotactin) and varying amounts of compound; the top chamber contained 100,000 THP-1 or monocyte cells in 20 μl. The chambers were incubated 1-2 hours at 37° C., and the number of cells in the lower chamber quantified either by direct cell counts in five high powered fields per well or by the CyQuant assay (Molecular Probes), a fluorescent dye method that measures nucleic acid content, and by measuring with a Spectrafluor Plus (Tecan). The computer program Prism from GraphPad, Inc. (San Diego, Calif.) was used to calculate IC50 values. IC50 values are those compound concentrations required to inhibit the number of cells responding to a CCR1 agonist by 50%.

IC50 [nM]	Compound
< 1000	CCC(C(=O)N1CCCc2c1cnn2-c1ccc(F)cc1)n1nc(C(C)(C)O)cc1C (stereo not drawn)
2500 to 12500	Cc1cc(C(F)(F)F)nn1C(CC(=O)O)C(=O)N1CCCc2c1cnn2-c1ccc(F)cc1 (stereo not drawn)
< 1000	CCC(C(=O)N1CCCc2c1cnn2-c1ccc(F)cc1)n1nc(C(F)(F)F)c(Cl)c1C (stereo not drawn)
< 1000	Cc1c(Cl)c(C(F)(F)F)nn1C(C(=O)N1CCCc2c1cnn2-c1ccc(F)cc1)C(C)C (stereo not drawn)
< 1000	O=C(Cn1cc(Cl)cn1)N1CCCc2c1cnn2-c1ccc(F)cc1
< 1000	CC(C)(C(=O)N1CCCc2c1cnn2-c1ccc(F)cc1)c1ccc(Cl)c(C(F)(F)F)c1
< 1000	O=C(Cc1ccc(Cl)c(OC(F)(F)F)c1)N1CCCc2c1cnn2-c1ccc(F)cc1
1000 to 2500	O=C(Cc1cccc(OC(F)(F)F)c1)N1CCCc2c1cnn2-c1ccc(F)cc1
1000 to 2500	O=C(C(O)c1cccc(C(F)(F)F)c1)N1CCCc2c1cnn2-c1ccc(F)cc1 (stereo not drawn)
< 1000	O=C(Cn1cnc(C(F)(F)F)n1)N1CCCc2c1cnn2-c1ccc(F)cc1
2500 to 12500	O=C(Cc1nccc(C(F)(F)F)n1)N1CCCc2c1cnn2-c1ccc(F)cc1
< 1000	O=C(Cc1ccc(C(F)(F)F)c(Cl)c1)N1CCCc2c1cnn2-c1ccc(F)cc1
< 1000	O=C(Cc1ccc(Cl)c(C(F)(F)F)c1)N1CCCc2c1cnn2-c1ccc(F)cc1
< 1000	Cc1c(Cl)c(-c2ncccn2)nn1CC(=O)N1CCCc2c1cnn2-c1ccc(F)cc1
< 1000	Cc1c(Cl)c(C(C)(C)O)nn1CC(=O)N1CCCc2c1cnn2-c1ccc(F)cc1
< 1000	Cc1c(Cl)c(C(F)(F)F)nn1CC(=O)N1CCCc2c1cnn2-c1ccc(Cl)cc1
< 1000	COc1cc(-n2ncc3c2CCCN3C(=O)Cn2nc(C(F)(F)F)c(Cl)c2C)ccc1Cl
< 1000	O=C(Cc1ccc(Cl)cc1)N1CCCc2c1cnn2-c1ccc(F)cc1
< 1000	Cc1c(Cl)c(C(F)(F)F)nn1CC(=O)N1CCCc2c1cnn2-c1ccc(F)cc1
< 1000	Cc1nc(C(F)(F)F)nn1C(C)C(=O)N1CCCc2c1cnn2-c1ccc(F)cc1 (stereo not drawn)
< 1000	Cc1nc(C(F)(F)F)cn1[C@@H](C)C(=O)N1CCCc2c1cnn2-c1ccc(Cl)cc1
< 1000	Cc1nc(C(F)(F)F)cn1[C@@H](C)C(=O)N1CCCc2c1cnn2-c1ccc(F)cc1

The next lines start with the compound.

Compound	IC50 [nM]
Cc1cc(C(F)(F)F)nn1C(CC(N)=O)C(=O)N1CCCc2c1cnn2-c1ccc(F)cc1 (stereo not drawn)	< 1000
COCC1CCc2c(cnn2-c2ccc(F)cc2)N1C(=O)Cn1nc(C(F)(F)F)c(Cl)c1C (stereo not drawn)	< 1000
Cc1ccnn1CC(=O)N1CCCc2c1cnn2-c1ccc(F)cc1	< 1000
Cc1c(Cl)c(C(F)(F)F)nn1CC(=O)N1CCCc2c1cnn2-c1ccc(F)cn1	< 1000
O=C(Cc1ccc(OC(F)(F)F)cc1)N1CCCc2c1cnn2-c1ccc(F)cc1	< 1000
Cc1nc(C(F)(F)F)nn1CC(=O)N1CCCc2c1cnn2-c1ccc(F)cc1	< 1000
Cc1nc(C(F)(F)F)cn1CC(=O)N1CCCc2c1cnn2-c1ccc(F)cc1	< 1000
O=C(Cn1cnc(C(F)(F)F)c1)N1CCCc2c1cnn2-c1ccc(F)cc1	< 1000
Cc1c(Cl)c(C(F)(F)F)cn1CC(=O)N1c2cnn(-c3ccc(F)cc3)c2CCC1C (stereo not drawn)	< 1000
O=C(Cc1ccc(C(F)(F)F)cc1)N1CCCc2c1cnn2-c1ccc(F)cc1	< 1000
Cc1nn(-c2ccc(F)cc2)c2c1N(C(=O)Cn1nc(C(F)(F)F)c(Cl)c1C)CCC2	< 1000
O=C(Cc1cccc(C(F)(F)F)c1)N1CCCc2c1cnn2-c1ccc(F)cc1	< 1000
Cc1c(Cl)c(C(F)(F)F)nn1C(C)C(=O)N1CCCc2c1cnn2-c1ccc(F)cc1 (stereo not drawn)	< 1000
Cc1cc(C(F)(F)F)nn1CC(=O)N1CCCc2c1cnn2-c1ccc(F)cc1	< 1000
Cc1nn(CC(=O)N2CCCc3c2cnn3-c2ccc(F)cc2)c(-c2ncccn2)c1Cl	< 1000
Nc1ncnc2c1c(-c1ncc[nH]1)nn2CC(=O)N1CCCc2c1cnn2-c1ccc(F)cc1	< 1000
Cc1nc(C(F)(F)F)nn1C(C)C(=O)N1CCCc2c1cnn2-c1ccc(Cl)cc1 (stereo not drawn)	< 1000
